Patent US20220135940A1, “METHOD FOR PRODUCING KIDNEY STRUCTURE HAVING DENDRITICALLY BRANCHED COLLECTING DUCT FROM PLURIPOTENT STEM CELLS” (NATIONAL UNIVERSITY CORPORATION KUMAMOTO UNIVERSITY, priority 2018, published 2022)

Experiments:
[1] = tested on: human iPS cell-derived CXCR4+/KIT+ WD progenitors; test: Maturation culture of sorted human iPS cell-derived CXCR4+/KIT+ WD progenitors, mature WD marker genes; format: cell-based; conditions: continuous administration in addition to mouse WD maturation cocktails, 10% Matrigel
Experimental: On day 6.25, the induced spheroids were harvested and dissociated by incubating in 0.25% trypsin/EDTA for 6 minutes at 37° C. After blocking in normal mouse serum, cell surface marker (CXCR4/KIT) staining was carried out in a buffer containing 1% BSA, 1×HBSS and 0.035% NaHCO3. The FACS-sorted 5,000 of CXCR4+/KIT+ cells were seeded in a V-bottom 96-well low cell binding plate and precipitated by the centrifuge (210 G for 4 minutes). The supernatant was replaced with a medium containing 10 μM Y27632, 0.1 μM retinoic acid, 1 μM CHIR, 5 ng/mL human Fgf9, 100 ng/mL human Fgf1, 10 nM LDN193189 and 10% growth factor reduced Matrigel (“Procedure 5 medium”). On day 8.5, the spheroids were transferred to a medium containing 10 μM Y27632, 0.1 μM retinoic acid, 3 μM CHIR, 5 ng/mL human Fgf9, 1 ng/mL human GDNF, 100 ng/mL human Fgf1, 10 nM LDN193189 and 10% growth factor reduced Matrigel (“Procedure 6 medium”). […]
(§1) Harvested spheroids or cells were homogenized, and total RNA was isolated using RNeasy Plus Micro Kit (Qiagen), and then a reverse-transcribed with random primers and Superscript III (Invitrogen). Quantitative PCR was carried out using Real-Time PCR system (Takara Bio) and Thunderbird SYBR qPCR Mix (Toyobo). With normalized by β-actin gene, relative mRNA expression levels were analyzed. […]

[2] = tested on: mouse ES cells; test: AIM induction from mouse ES cells (procedure 3), AIM marker expression; format: cell-based; conditions: Fgf9 at high concentrations
Experimental: (§2) ES cells were differentiated in a serum-free medium as follows. The ES cells were dissociated with Accutase™ (ESGRO) and cultured in a serum-free mouse ES cell differentiation medium. The harvested cells were aggregated in a 96-well U-bottom low cell binding plate at 1,000 cells per aggregate to form embryonic bodies (EBs). After 48 hours (day 2), the EBs were dissociated with Accutase and re-aggregated in a serum-free differentiation medium supplemented with 10 ng/mL human activin A (R & D) (Procedure 1). After 24 hours (day 3), the medium was replaced with a medium containing 0.3 ng/mL human Bmp4 (R & D) and 10 μM CHIR 99021 (Procedure 2). After 36 hours (day 4.5), the medium was replaced with procedure 3 medium containing 0.1 μM retinoic acid, 100 ng/mL human Fgf9 and 10 μM SB431542 (Wako). On day 5.5 (24 hours later), the medium was replaced with a medium containing 0.1 μM retinoic acid, 100 ng/mL human Fgf9 and 5 μM CHIR99021 (“Procedure 4 medium”). The differentiation factors of the Hoxb7-GFP ES cell line are shown in the table below together with the differentiation factors of the Osr1-GFP ES cell line.
(§3) Harvested spheroids or cells were homogenized, and total RNA was isolated using RNeasy Plus Micro Kit (Qiagen), and then a reverse-transcribed with random primers and Superscript III (Invitrogen). Quantitative PCR was carried out using Real-Time PCR system (Takara Bio) and Thunderbird SYBR qPCR Mix (Toyobo). With normalized by β-actin gene, relative mRNA expression levels were analyzed.
Next, signaling for the AIM differentiation procedure was hypothesized, which is partially different from that for PIM, based on the gene expression profile minimally conserved, between anterior intermediate mesoderm (AIM) (Osr1+, Pax2+, Pax8+, Emx2+, Lhx1+, Gata3+) and posterior intermediate mesoderm (PIM) (Osr1+, Wtl+, Hoxll+) (Procedure 3 in FIG. 2).

[3] = tested on: human iPS cells; test: AIM induction from human iPS cells (procedure 3), AIM marker genes by quantitative analysis at day 4.5; format: cell-based; conditions: administered at procedure 3, day 4.5
Experimental: (§4) Cells were reaggregated at 10,000 cells per aggregate in a V-bottom 96-well low cell binding plate using a medium containing 10 μM Y27632 and 10 ng/mL human activin A and 1 ng/mL human Bmp4 (“Procedure 1 medium”), to form embryonic bodies (EBs). After 24 hours (day 1), the aggregates were transferred to a U-bottom 96-well low cell binding plate containing a medium containing 10 μM CHIR and 1 ng/mL human Bmp4 (“Procedure 2 medium”). After 36 hours (day 2.5), the medium was replaced with a medium containing 0.1 μM retinoic acid, 100 ng/mL human Fgf9, 100 nM LDN193189 and 100 μM SB431542 (“Procedure 3 medium”). On day 4.5, the medium was replaced with a medium containing 0.1 μM retinoic acid, 5 μM CHIR, 100 ng/mL human Fgf9 and 30 nM LDN193189 (“Procedure 4 medium”).
as §3
The induction of WD from human iPS cells was performed as follows. […] This was confirmed by quantitative analysis at day 4.5 and day 6.25, respectively (FIG. 22).

[4] = tested on: human iPS cells; test: Induction of CXCR4+/KIT+ WD progenitors from human iPS cells, FACS at day 6.25; format: cell-based
Experimental: as §4
On day 6.25, the induced spheroids were harvested and dissociated by incubating in 0.25% trypsin/EDTA for 6 minutes at 37° C. After blocking in normal mouse serum, cell surface marker (CXCR4/KIT) staining was carried out in a buffer containing 1% BSA, 1×HBSS and 0.035% NaHCO3. The FACS-sorted 5,000 of CXCR4+/KIT+ cells were seeded in a V-bottom 96-well low cell binding plate and precipitated by the centrifuge (210 G for 4 minutes). The supernatant was replaced with a medium containing 10 μM Y27632, 0.1 μM retinoic acid, 1 μM CHIR, 5 ng/mL human Fgf9, 100 ng/mL human Fgf1, 10 nM LDN193189 and 10% growth factor reduced Matrigel (“Procedure 5 medium”). On day 8.5, the spheroids were transferred to a medium containing 10 μM Y27632, 0.1 μM retinoic acid, 3 μM CHIR, 5 ng/mL human Fgf9, 1 ng/mL human GDNF, 100 ng/mL human Fgf1, 10 nM LDN193189 and 10% growth factor reduced Matrigel (“Procedure 6 medium”). On day 10.5, the spheroids were transferred to a medium containing 10 μM Y27632, 0.1 μM retinoic acid, 3 μM CHIR, 2 ng/mL human GDNF, 100 ng/mL human Fgf1, 10 nM LDN193189 and 10% growth factor reduce Matrigel (“Procedure 7 medium”).
(§5) Cell aggregates induced from embryonic tissue or mouse ES cells/human iPS cells were dissociated and blocked with normal mouse serum and then cell surface marker staining was carried out in a buffer containing 1% BSA, 1×HBSS and 0.035% NaHCO3. Data analysis was performed with FlowJo software (Treestar).
Next, the optimal time window for inducing anterior or posterior intermediate mesoderm from the nascent mesoderm was examined. Since the nascent mesoderm population is maintained by the high concentrations of Wnt agonists, the incubation period with Wnt agonists was varied and the subsequent differentiation was applied with conditions specific to the UB or metanephric nephron progenitor cell lineage. The induction efficiency of CXCR4+/KIT+ WD progenitor or ITGA8+/PDGFRA− nephron progenitor cell fraction was examined at day 6.25 or day 12, respectively. […]

[5] = tested on: sorted Hoxb7-GFP positive E8.75 WD progenitors; test: Maturation culture of sorted E8.75 WD progenitors, marker genes by qRT-PCR; format: cell-based, mouse; conditions: Wnt agonist 3 μM and Fgf9 100 ng/mL
Experimental: For embryonic tissue cultures at E8.75, the region caudal to the heart primordia of 12-15 somite-stage embryos were harvested and Hoxb7-GFP+/Flk1− cells were sorted by FACS. The sorted cells were aggregated in a V-bottom 96-well low cell binding plate at about 1,200 cells per aggregate. It was cultured for the first 24 hours using a medium containing 10 μM Y27632, 0.1 μM retinoic acid, 1 μM CHIR99021, 5 ng/mL human Fgf9 and 10% growth factor reduced Matrigel (“Procedure 5 medium”), then, the spheroids were transferred to “Procedure 6 medium” and “Procedure 7 medium,” and cultured for 24 hours each for differentiation.
as §3
As the second procedure, the factors that mature the E8.75WD into the E9.5WD were found as follows. We investigated the factors that trigger maturation of the WD progenitors in the early stage, from embryonic E8.75 to E9.5 stage. At embryonic E8.75 to E9.5 stage, the Hoxb7-GFP positive WD progenitors are first clearly detectable in the anterior body trunk of the embryo (8-10 somite level). […]

[6] = tested on: mouse ES cells; test: Induction of CXCR4+/KIT+ WD progenitors from mouse ES cells, FACS at day 6.25; format: cell-based
Experimental: as §2
On day 6.25, the induced spheroids were harvested and dissociated by incubating in 0.25% trypsin/EDTA at 37° C. for 6 minutes. After blocking in normal mouse serum, cell surface marker (CXCR4/KIT) staining was carried out in a buffer containing 1% BSA, 1×HBSS and 0.035% NaHCO3. The FACS-sorted 3,000 Hoxb7-GFP+/CXCR4+/KIT+ cells were aggregated in a V-bottom 96-well low cell binding plate to form spheroids. Subsequently, these were cultured using the above E8.75 embryonic tissue culture conditions.
as §5

[7] = tested on: WD sorted from dissociated E9.5 mouse embryos; test: Maturation culture of sorted E9.5 embryonic WD with growth factor combinations, marker genes by qRT-PCR; format: cell-based; conditions: E9.5 WD aggregates, Gdnf added to RA, Wnt agonist and Fgf9
Experimental: The posterior regions were harvested from the forelimbs of 22-26 somatic-stage embryos for embryonic tissue culture at […]. The harvested tissues were dissociated into single cells by incubating in DMEM/10% FBS containing 1 mg/mL Type XI collagenase for 6 minutes at 37° C., followed by treatment with DNase I and 0.25% trypsin at 37° C. for 6 minutes. After blocking in normal mouse serum, cell surface marker (Flk1) staining was carried out. Hoxb7-GFP+/Flk1− cells sorted by FACS were resuspended in a mouse ES cell differentiation media, and seeded in a V-bottom 96-well low cell binding plate (Sumitomo Bakelite, Co., Ltd., Cat #MS-9096V) so that there were about 1,600 cells per well. After the centrifuge (210 G, 4 min), the supernatant media was replaced with a medium containing 10 μM Y27632 (Wako), 0.1 μM retinoic acid, 3 μM CHIR99021, 5 ng/mL human Fgf9 (R & D), 1 ng/mL human GDNF (R & D) and 10% growth factor reduced Matrigel (BD) (“Procedure 6 medium”). […]
as §1

## Fgf1: fibroblast cell growth factor, human Fgf1
[1]
  expression of the mature WD marker genes: further enhanced the expression of the mature WD marker genes

## NC(=O)c1ccc(-c2nc(-c3ccc4c(c3)OCO4)c(-c3ccccn3)[nH]2)cc1 [SB431542, reference compound]
[2]
  induction of AIM markers: enhanced the AIM marker induction

## c1ccc2c(-c3cnn4cc(-c5ccc(N6CCNCC6)cc5)cnc34)ccnc2c1 [LDN, LDN193189, reference compound]
[3]
  AIM marker genes expression: greatly enhanced
[4]; administered at procedure 3, day 6.25
  induction of CXCR4+/KIT+ WD progenitors: greatly enhanced
[1]
  expression of the mature WD marker genes: further enhanced the expression of the mature WD marker genes

## Cc1c[nH]c(-c2cnc(NCCNc3ccc(C#N)cn3)nc2-c2ccc(Cl)cc2Cl)n1 [CHIR99021, reference compound]
[5]
  expression of maturation marker genes (Hnf1b, Wnt9b, Calb1, E-cadherin): worked inhibitory
[6]; procedure 4, removal of the factor from RA, Wnt agonist and Fgf9
  induction of the CXCR4+/KIT+ population: dramatically reduced the induction of the CXCR4+/KIT+ population

## CC1=C(/C=C/C(C)=C/C=C/C(C)=C/C(=O)O)C(C)(C)CCC1 [retinoic acid, all trans-retinoic acid, reference compound]
[2]
  induction of AIM markers: common inducer for both AIM and PIM induction

B1: Bmp4: BMP signal pathway active substance, human Bmp4 (R & D) (protein, UniProt P12644 293-408, looked up)
Bone morphogenetic protein 4: SPKHHSQRARKKNKNCRRHSLYVDFSDVGWNDWIVAPPGYQAFYCHGDCPFPLADHLNSTNHAIVQTLVNSVNSSIPKACCVPTELSAISMLYLDEYDKVVLKNYQEMVVEGCGCR
[2]
  induction of AIM markers: inhibitory to the induction of AIM markers
[6]; Bmp4 in procedure 2, activin A in procedure 1
  UB induction versus MM induction, concentration dependence: maximized at higher Bmp4 concentrations compared to MM
[4]; epiblast patterning stage (day 0 to day 1), combination of activin A and Bmp4
  concentration at which WD progenitor induction peaked: 1 ng/mL
[4]; mesoderm induction/patterning with CHIR, days 1 to 2.5
  concentration at which UB progenitor cells were most efficiently induced: 1 ng/mL

B2: Gdnf: glial cell line-derived neurotrophic factor, recombinant human GDNF protein (protein, UniProt P39905 78-211, looked up)
Glial cell line-derived …: SPDKQMAVLPRRERNRQAAAANPENSRGKGRRGQRGKNRGCVLTAIHLNVTDLGLGYETKEELIFRYCSGSCDAAETTYDKILKNLSRNRRLVSDKVGQACCRPIAFDDDLSFLDDNLVYHILRKHSAKRCGCI
[7]
  Wnt11 expression and bud-like structure formation: successfully induced the Wnt11 expression and bud-like structure formation
